Source: PubChem BioAssay AID1963847 (Molecular Pharmacology Branch, DTP, NCI, 2024)

Tested on: 415267-285-R-J2-PDC complex spheroid viability
Assay: Anticancer human tumor 415267-285-R-J2-PDC patient-derived breast carcinoma cell line growth inhibition [POLQ]
Conditions: for IC50: curve of first compound; for viability, T/C: stronger effect = lower value
Procedure, shortened: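 Growth inhibition in 3D: complex spheroids (tumor PDC, HUVEC, MSC) treated with POLQ inhibitor combinations; where Cmax unknown, highest tested concentration 10 microM, except SN-38 at 1 microM.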

[1] = second compound 0.0316 µM, first compound 0.0316 µM
[2] = second compound 0.0316 µM, first compound 0.1 µM
[3] = second compound 0.0316 µM, first compound 0.316 µM
[4] = second compound 0.0316 µM, first compound 1 µM
[5] = second compound 0.0316 µM, first compound 3.16 µM
[6] = second compound 0.0316 µM, first compound 10 µM
[7] = second compound 0.1 µM, first compound 0.0316 µM
[8] = second compound 0.1 µM, first compound 0.1 µM
[9] = second compound 0.1 µM, first compound 0.316 µM
[10] = second compound 0.1 µM, first compound 1 µM
[11] = second compound 0.1 µM, first compound 3.16 µM
[12] = second compound 0.1 µM, first compound 10 µM
[13] = second compound 0.316 µM, first compound 0.0316 µM
[14] = second compound 0.316 µM, first compound 0.1 µM
[15] = second compound 0.316 µM, first compound 0.316 µM
[16] = second compound 0.316 µM, first compound 1 µM
[17] = second compound 0.316 µM, first compound 3.16 µM
[18] = second compound 0.316 µM, first compound 10 µM
[19] = second compound 1 µM, first compound 0.0316 µM
[20] = second compound 1 µM, first compound 0.1 µM
[21] = second compound 1 µM, first compound 0.316 µM
[22] = second compound 1 µM, first compound 1 µM
[23] = second compound 1 µM, first compound 3.16 µM
[24] = second compound 1 µM, first compound 10 µM
[25] = second compound 3.16 µM, first compound 0.0316 µM
[26] = second compound 3.16 µM, first compound 0.1 µM
[27] = second compound 3.16 µM, first compound 0.316 µM
[28] = second compound 3.16 µM, first compound 1 µM
[29] = second compound 3.16 µM, first compound 3.16 µM
[30] = second compound 3.16 µM, first compound 10 µM
[31] = second compound 10 µM, first compound 0.0316 µM
[32] = second compound 10 µM, first compound 0.1 µM
[33] = second compound 10 µM, first compound 0.316 µM
[34] = second compound 10 µM, first compound 1 µM
[35] = second compound 10 µM, first compound 3.16 µM
[36] = second compound 10 µM, first compound 10 µM
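Also: spheroids exposed to compounds for one week before readout.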
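For viability, T/C in this document: luminescence used as stand-in measure of viable cells; 100% = DMSO vehicle control viability.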

CCc1cc2c(N3CCc4c(cc(Cn5ccnc5)cc4-c4cn(C)nc4C(F)(F)F)C3=O)ccnc2c(OC)n1 + Cc1cccc(N(C)C(=O)C2C(O)CCN2c2nc(C)cc(C(F)(F)F)c2C#N)c1
IC50 (second compound 0.0316 µM): > 10000 nM
IC50 (second compound 0.1 µM): > 10000 nM
IC50 (second compound 0.316 µM): > 10000 nM
IC50 (second compound 1 µM): > 10000 nM
IC50 (second compound 3.16 µM): > 10000 nM
IC50 (second compound 10 µM): > 10000 nM
viability, T/C [1]: 88.4%
viability, T/C [2]: 94.8%
viability, T/C [3]: 88.7%
viability, T/C [4]: 86.2%
viability, T/C [5]: 92.8%
viability, T/C [6]: 79.2%
viability, T/C [7]: 102%
viability, T/C [8]: 99.8%
viability, T/C [9]: 80.2%
viability, T/C [10]: 89%
viability, T/C [11]: 95.4%
viability, T/C [12]: 77.2%
viability, T/C [13]: 105%
viability, T/C [14]: 96.1%
viability, T/C [15]: 88.5%
viability, T/C [16]: 88.7%
viability, T/C [17]: 89.8%
viability, T/C [18]: 88.7%
viability, T/C [19]: 92.3%
viability, T/C [20]: 91.5%
viability, T/C [21]: 88.1%
viability, T/C [22]: 88.2%
viability, T/C [23]: 91.2%
viability, T/C [24]: 86.2%
viability, T/C [25]: 102%
viability, T/C [26]: 98.3%
viability, T/C [27]: 82.3%
viability, T/C [28]: 101%
viability, T/C [29]: 92.2%
viability, T/C [30]: 85.4%
viability, T/C [31]: 100%
viability, T/C [32]: 100%
viability, T/C [33]: 99.6%
viability, T/C [34]: 99.8%
viability, T/C [35]: 82.5%
viability, T/C [36]: 77.8%

CCc1c2c(nc3ccc(O)cc13)-c1cc3c(c(=O)n1C2)COC(=O)[C@]3(O)CC + Nc1ccc(C#CCN(C(=O)Cc2ncc(C(F)(F)F)cc2C(F)(F)F)c2ccc(F)cc2)nn1
IC50 (second compound 0.0316 µM): 3.71 nM
IC50 (second compound 0.1 µM): 4.23 nM
IC50 (second compound 0.316 µM): 3.49 nM
IC50 (second compound 1 µM): < 3.16 nM
IC50 (second compound 3.16 µM): < 3.16 nM
IC50 (second compound 10 µM): < 3.16 nM
viability, T/C (second compound 0.0316 µM, first compound 0.00316 µM): 56.2%
viability, T/C (second compound 0.0316 µM, first compound 0.01 µM): 12.2%
viability, T/C [1]: 4.64%
viability, T/C [2]: 3.13%
viability, T/C [3]: 1.82%
viability, T/C [4]: 1.11%
viability, T/C (second compound 0.1 µM, first compound 0.00316 µM): 63.5%
viability, T/C (second compound 0.1 µM, first compound 0.01 µM): 10.5%
viability, T/C [7]: 4.81%
viability, T/C [8]: 3.2%
viability, T/C [9]: 2.14%
viability, T/C [10]: 1.01%
viability, T/C (second compound 0.316 µM, first compound 0.00316 µM): 53.6%
viability, T/C (second compound 0.316 µM, first compound 0.01 µM): 11.3%
viability, T/C [13]: 4.02%
viability, T/C [14]: 2.64%
viability, T/C [15]: 2.39%
viability, T/C [16]: 1.12%
viability, T/C (second compound 1 µM, first compound 0.00316 µM): 46.9%
viability, T/C (second compound 1 µM, first compound 0.01 µM): 9.28%
viability, T/C [19]: 4.2%
viability, T/C [20]: 3.14%
viability, T/C [21]: 2.27%
viability, T/C [22]: 0.96%
viability, T/C (second compound 3.16 µM, first compound 0.00316 µM): 42.7%
viability, T/C (second compound 3.16 µM, first compound 0.01 µM): 9.28%
viability, T/C [25]: 5.9%
viability, T/C [26]: 3.54%
viability, T/C [27]: 2.55%
viability, T/C [28]: 0.98%
viability, T/C (second compound 10 µM, first compound 0.00316 µM): 32.5%
viability, T/C (second compound 10 µM, first compound 0.01 µM): 9.81%
viability, T/C [31]: 4.81%
viability, T/C [32]: 2.88%
viability, T/C [33]: 2.6%
viability, T/C [34]: 1.04%

CC1COCCN1c1cc(C2(O)CC3CCC(C2)O3)c2cnn(-c3ccn[nH]3)c2n1 (stereo unspecified) + COC1C(OC(N)=O)C(O)C(Oc2ccc3c(O)c(NC(=O)c4ccc(O)c(CC=C(C)C)c4)c(=O)oc3c2C)OC1(C)C
IC50 (second compound 0.0316 µM): < 31.6 nM
IC50 (second compound 0.1 µM): < 31.6 nM
IC50 (second compound 0.316 µM): < 31.6 nM
IC50 (second compound 1 µM): < 31.6 nM
IC50 (second compound 3.16 µM): < 31.6 nM
IC50 (second compound 10 µM): < 31.6 nM
viability, T/C [1]: 17.2%
viability, T/C [2]: 6.83%
viability, T/C [3]: 8.23%
viability, T/C [4]: 5.44%
viability, T/C [5]: 4.27%
viability, T/C [6]: 4.51%
viability, T/C [7]: 17.1%
viability, T/C [8]: 6.51%
viability, T/C [9]: 4.34%
viability, T/C [10]: 4.52%
viability, T/C [11]: 3.9%
viability, T/C [12]: 4.57%
viability, T/C [13]: 22.7%
viability, T/C [14]: 9.96%
viability, T/C [15]: 4.64%
viability, T/C [16]: 3.57%
viability, T/C [17]: 5.27%
viability, T/C [18]: 4%
viability, T/C [19]: 27.2%
viability, T/C [20]: 6.76%
viability, T/C [21]: 4.22%
viability, T/C [22]: 4.87%
viability, T/C [23]: 4.41%
viability, T/C [24]: 3.65%
viability, T/C [25]: 21%
viability, T/C [26]: 8.52%
viability, T/C [27]: 4.99%
viability, T/C [28]: 4.02%
viability, T/C [29]: 4.45%
viability, T/C [30]: 4.43%
viability, T/C [31]: 29.5%
viability, T/C [32]: 7.77%
viability, T/C [33]: 5.61%
viability, T/C [34]: 5.07%
viability, T/C [35]: 4.2%
viability, T/C [36]: 4.18%
